From the supplement of paper PMC10307832

How the values were obtained:
Test in all cases: relative viability (nuclei count vs DMSO), 5 days (fraction); higher = more cells survive
BMX-IN-1 + OSI-027 = compound: C=CC(=O)Nc1cc(-n2c(=O)ccc3cnc4ccc(-c5ccc(NS(C)(=O)=O)cc5)cc4c32)ccc1C [BMX-IN-1] + COc1cccc2cc(-c3nc([C@H]4CC[C@H](C(=O)O)CC4)n4ncnc(N)c34)[nH]c12 [OSI-027] (partner 0.5 µM)
How it was run: (§1)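 Cells from lung cancer lines were seeded into 1536-well plates and, one day later, dosed by pin tool. Treatments were either a single drug or a fixed dose of an anchor drug with five library-drug doses (not always all listed) in √10 steps. After 5 days, nuclei were stained in a one-step fixation (final 0.05% Triton X-100, 1% formaldehyde, 1 ug/ml Hoechst) and counted on 4× images, and relative viability is the treated-to-vehicle nuclei ratio, as the median of duplicate plates.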

BMX-IN-1 + Luminespib = compound: C=CC(=O)Nc1cc(-n2c(=O)ccc3cnc4ccc(-c5ccc(NS(C)(=O)=O)cc5)cc4c32)ccc1C [BMX-IN-1] + CCNC(=O)c1noc(-c2cc(C(C)C)c(O)cc2O)c1-c1ccc(CN2CCOCC2)cc1 [Luminespib] (partner 0.01 µM)
How it was run: as §1

Ibrutinib + Tozasertib = compound: C=CC(=O)N1CCC[C@@H](n2nc(-c3ccc(Oc4ccccc4)cc3)c3c(N)ncnc32)C1 [Ibrutinib] + Cc1cc(Nc2cc(N3CCN(C)CC3)nc(Sc3ccc(NC(=O)C4CC4)cc3)n2)n[nH]1 [Tozasertib] (partner 0.1 µM)
How it was run: as §1

BMX-IN-1 + Tozasertib = compound: C=CC(=O)Nc1cc(-n2c(=O)ccc3cnc4ccc(-c5ccc(NS(C)(=O)=O)cc5)cc4c32)ccc1C [BMX-IN-1] + Cc1cc(Nc2cc(N3CCN(C)CC3)nc(Sc3ccc(NC(=O)C4CC4)cc3)n2)n[nH]1 [Tozasertib] (partner 0.1 µM)
How it was run: as §1

| Cell Line | relative viability (BMX-IN-1 + OSI-027; first compound 0.02 µM) | relative viability (BMX-IN-1 + OSI-027; first compound 0.2 µM) | relative viability (BMX-IN-1 + OSI-027; first compound 0.6325 µM) | relative viability (BMX-IN-1 + OSI-027; first compound 2 µM) | relative viability (BMX-IN-1 + Luminespib; first compound 0.02 µM) | relative viability (BMX-IN-1 + Luminespib; first compound 0.2 µM) | relative viability (BMX-IN-1 + Luminespib; first compound 0.6325 µM) | relative viability (BMX-IN-1 + Luminespib; first compound 2 µM) | relative viability (Ibrutinib + Tozasertib; first compound 0.01581 µM) | relative viability (Ibrutinib + Tozasertib; first compound 0.05 µM) | relative viability (Ibrutinib + Tozasertib; first compound 0.1581 µM) | relative viability (Ibrutinib + Tozasertib; first compound 0.5 µM) | relative viability (BMX-IN-1 + Tozasertib; first compound 0.02 µM) | relative viability (BMX-IN-1 + Tozasertib; first compound 0.2 µM) | relative viability (BMX-IN-1 + Tozasertib; first compound 0.6325 µM) | relative viability (BMX-IN-1 + Tozasertib; first compound 2 µM) | relative viability (Ibrutinib + Tozasertib; first compound 0.005 µM) |
| --- | --- | --- | --- | --- | --- | --- | --- | --- | --- | --- | --- | --- | --- | --- | --- | --- | --- |
| NCI-H596 | 0.924 | 0.856 | 0.781 | 0.81 | 0.917 | 1.02 | 1.02 | 1.01 | 0.922 | 0.858 | 0.943 | 0.722 | 1.07 | 0.932 | 0.819 | 0.959 | – |
| NCI-H647 | 0.722 | 0.642 | 0.736 | 0.571 | 0.242 | 0.294 | 0.179 | 0.379 | 0.298 | 0.39 | 0.347 | 0.174 | 0.283 | 0.0553 | 0.394 | 0.232 | – |
| NCI-H650 | 0.511 | 0.508 | 0.594 | 0.531 | 0.789 | 0.831 | 0.914 | 0.773 | 0.672 | 0.758 | 0.808 | 0.782 | 0.753 | 0.838 | 0.739 | 0.764 | 0.783 |
| NCI-H1563 | 0.838 | 0.757 | 0.697 | 0.642 | 0.549 | 0.461 | 0.523 | 0.521 | – | – | – | – | – | – | – | – | – |
| NCI-H1648 | 0.223 | 0.249 | 0.265 | 0.272 | – | – | – | – | 0.368 | 0.467 | 0.537 | 0.358 | 0.447 | 0.47 | 0.426 | 0.459 | 0.549 |
| NCI-H1792 | – | 0.823 | 0.817 | 0.775 | 0.428 | 0.31 | 0.427 | 0.46 | – | – | – | – | – | – | – | – | – |
